Publication PMC6812009, “Covalent Aurora A regulation by the metabolic integrator coenzyme A” (Redox Biology, 2019)

Assays:
Experiment in all cases: Kinase profiling screen (radioactive filter-binding assay)
Format in all cases: biochemical
Settings in all cases: 100 μM compound, 20 μM ATP; read-out: Kinase activity, % of activity in the absence of inhibitor
[1] = molecular target: T1, PDK1 (Homo sapiens, UniProt O15530)
T1 sequence (O15530 1-556): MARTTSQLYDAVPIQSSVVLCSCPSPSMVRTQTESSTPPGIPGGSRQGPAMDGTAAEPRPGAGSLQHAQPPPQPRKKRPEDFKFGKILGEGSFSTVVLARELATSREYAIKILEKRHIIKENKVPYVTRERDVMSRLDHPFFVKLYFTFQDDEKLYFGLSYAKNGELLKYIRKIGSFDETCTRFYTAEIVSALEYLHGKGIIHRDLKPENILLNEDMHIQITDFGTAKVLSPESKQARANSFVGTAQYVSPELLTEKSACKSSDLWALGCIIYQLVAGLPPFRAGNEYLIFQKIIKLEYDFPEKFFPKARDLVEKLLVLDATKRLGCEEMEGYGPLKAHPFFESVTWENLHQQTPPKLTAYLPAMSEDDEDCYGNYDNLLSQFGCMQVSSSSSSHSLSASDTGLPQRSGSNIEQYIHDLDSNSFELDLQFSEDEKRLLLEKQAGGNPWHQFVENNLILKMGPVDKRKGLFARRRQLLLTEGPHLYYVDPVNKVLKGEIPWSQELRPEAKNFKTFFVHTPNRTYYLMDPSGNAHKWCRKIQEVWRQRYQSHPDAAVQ
How it was run: (§1)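 Residual kinase activity is read in duplicate wells containing 100 μM final test compound (CoA, dpCoA or ADP). Recombinant kinases use model substrates at ATP levels optimal for each enzyme, across a 117-kinase screen.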

[2] = molecular target: T2, LKB1 (Homo sapiens, UniProt Q15831)
T2 sequence (Q15831 1-433): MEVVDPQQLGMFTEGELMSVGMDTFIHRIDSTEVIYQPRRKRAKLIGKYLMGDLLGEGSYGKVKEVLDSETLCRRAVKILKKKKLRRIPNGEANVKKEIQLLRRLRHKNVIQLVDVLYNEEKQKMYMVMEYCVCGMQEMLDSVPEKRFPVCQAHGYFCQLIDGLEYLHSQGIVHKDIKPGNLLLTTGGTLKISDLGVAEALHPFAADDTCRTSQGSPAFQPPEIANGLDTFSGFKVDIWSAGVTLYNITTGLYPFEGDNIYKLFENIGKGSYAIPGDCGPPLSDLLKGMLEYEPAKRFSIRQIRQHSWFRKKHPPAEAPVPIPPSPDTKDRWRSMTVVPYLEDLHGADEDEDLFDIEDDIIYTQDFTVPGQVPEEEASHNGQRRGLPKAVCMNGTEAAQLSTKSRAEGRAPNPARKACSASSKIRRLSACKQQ
T2 sequence (Q7RTN6 1-431 partner): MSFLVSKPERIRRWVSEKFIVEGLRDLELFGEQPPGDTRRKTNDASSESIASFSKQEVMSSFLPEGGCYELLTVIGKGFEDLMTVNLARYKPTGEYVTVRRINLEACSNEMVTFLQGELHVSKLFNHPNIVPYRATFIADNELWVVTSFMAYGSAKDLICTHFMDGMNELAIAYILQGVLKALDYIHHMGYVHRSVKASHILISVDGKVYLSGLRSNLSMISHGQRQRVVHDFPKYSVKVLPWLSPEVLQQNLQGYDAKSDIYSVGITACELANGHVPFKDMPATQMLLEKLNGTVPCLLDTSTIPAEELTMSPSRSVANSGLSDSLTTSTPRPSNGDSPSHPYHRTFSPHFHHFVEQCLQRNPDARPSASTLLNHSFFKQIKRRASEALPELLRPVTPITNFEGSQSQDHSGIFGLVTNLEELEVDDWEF
T2 sequence (Q9Y376 1-341 partner): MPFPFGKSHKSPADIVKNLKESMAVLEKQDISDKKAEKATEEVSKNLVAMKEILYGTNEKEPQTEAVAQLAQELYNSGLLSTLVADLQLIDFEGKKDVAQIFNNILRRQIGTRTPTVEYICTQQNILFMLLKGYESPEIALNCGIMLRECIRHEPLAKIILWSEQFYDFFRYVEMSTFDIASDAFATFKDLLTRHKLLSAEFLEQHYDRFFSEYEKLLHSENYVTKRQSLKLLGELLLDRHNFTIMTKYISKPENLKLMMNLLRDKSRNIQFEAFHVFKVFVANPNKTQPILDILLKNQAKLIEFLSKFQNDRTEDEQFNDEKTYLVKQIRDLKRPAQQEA
How it was run: as §1

[3] = molecular target: HIPK1 (Homo sapiens, UniProt Q86Z02)
How it was run: as §1

Chain of HIPK1 (Q86Z02 whole entry): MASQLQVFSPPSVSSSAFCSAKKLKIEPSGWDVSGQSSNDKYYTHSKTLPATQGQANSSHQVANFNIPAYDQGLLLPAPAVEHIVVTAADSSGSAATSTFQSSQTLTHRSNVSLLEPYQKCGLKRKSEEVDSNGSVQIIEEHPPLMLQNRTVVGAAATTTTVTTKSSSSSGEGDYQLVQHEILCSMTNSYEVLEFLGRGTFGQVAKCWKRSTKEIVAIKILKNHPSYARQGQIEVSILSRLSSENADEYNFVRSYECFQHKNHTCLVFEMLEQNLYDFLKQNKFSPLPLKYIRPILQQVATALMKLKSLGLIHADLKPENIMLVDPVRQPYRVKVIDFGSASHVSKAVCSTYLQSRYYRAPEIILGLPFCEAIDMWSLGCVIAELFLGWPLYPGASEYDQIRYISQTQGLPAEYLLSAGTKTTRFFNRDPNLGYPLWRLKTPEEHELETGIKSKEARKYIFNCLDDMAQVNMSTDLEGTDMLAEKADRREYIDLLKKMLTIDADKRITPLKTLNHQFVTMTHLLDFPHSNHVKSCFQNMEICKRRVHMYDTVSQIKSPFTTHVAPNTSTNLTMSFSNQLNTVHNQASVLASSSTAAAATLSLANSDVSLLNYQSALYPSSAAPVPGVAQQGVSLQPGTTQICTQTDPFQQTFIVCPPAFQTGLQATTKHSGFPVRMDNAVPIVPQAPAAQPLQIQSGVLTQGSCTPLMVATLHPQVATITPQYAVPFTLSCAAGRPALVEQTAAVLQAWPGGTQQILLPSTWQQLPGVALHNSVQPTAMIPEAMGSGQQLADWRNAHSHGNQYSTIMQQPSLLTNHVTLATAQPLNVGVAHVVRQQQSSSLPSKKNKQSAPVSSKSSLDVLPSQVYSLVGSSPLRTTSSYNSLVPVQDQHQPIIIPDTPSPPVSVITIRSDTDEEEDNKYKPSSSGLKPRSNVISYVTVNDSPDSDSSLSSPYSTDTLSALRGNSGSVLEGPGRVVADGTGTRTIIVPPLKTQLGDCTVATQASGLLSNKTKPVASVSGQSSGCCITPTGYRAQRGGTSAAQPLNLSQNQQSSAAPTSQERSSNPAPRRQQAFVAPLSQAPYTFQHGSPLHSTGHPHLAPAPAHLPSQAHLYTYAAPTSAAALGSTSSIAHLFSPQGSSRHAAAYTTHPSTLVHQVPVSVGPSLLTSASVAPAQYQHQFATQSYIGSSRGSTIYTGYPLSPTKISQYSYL

`CC(C)(COP(=O)(O)OP(=O)(O)OC[C@H]1O[C@@H](n2cnc3c(N)ncnc32)[C@H](O)[C@@H]1OP(=O)(O)O)[C@@H](O)C(=O)NCCC(=O)NCCS` [CoA, Coenzyme A] showed an activity at 100 µM [1] of 113%, an activity at 100 µM [2] of 103% and an activity at 100 µM [3] of 115%.
With `CC(C)(COP(=O)(O)OP(=O)(O)OCC1OC(n2cnc3c(N)ncnc32)C(O)C1O)C(O)C(=O)NCCC(=O)NCCS` (stereo not drawn) [dpCoA, dephospho-CoA] the activity at 100 µM [1] was 91.2%, the activity at 100 µM [2] was 81.1% and the activity at 100 µM [3] was 92.8%.
With `Nc1ncnc2c1ncn2C1OC(COP(=O)(O)OP(=O)(O)O)C(O)C1O` (stereo not drawn) [ADP] the activity at 100 µM [1] was 23.3%, the activity at 100 µM [2] was 71% and the activity at 100 µM [3] was 31.7%.
